According to PubChem BioAssay (NCI):
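Test compounds were applied to cells in 96-well plates for 48 hours at 5 doses. Abbreviation: GI50, concentration required for 50% inhibition of growth. TGI is the concentration that stops growth completely.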

Legend:
Test in all cases: inhibition of tumour cell growth, NCI panel, 48 h
[1] = tested on: MOLT-4 leukemia
[2] = tested on: ACHN renal
[3] = tested on: SF-295 CNS
[4] = tested on: HCT-116 colon
[5] = tested on: SK-MEL-28 melanoma
[6] = tested on: SK-MEL-2 melanoma
[7] = tested on: IGROV1 ovarian
[8] = tested on: SNB-19 CNS
[9] = tested on: U251 CNS
[10] = tested on: NCI-H226 lung

Row | SMILES | GI50 [1] [µM] | TGI [1] [µM] | GI50 [2] [nM] | TGI [2] [µM] | GI50 [3] [µM] | TGI [3] [µM] | GI50 [4] [µM] | TGI [4] [µM] | GI50 [5] [µM] | TGI [5] [µM] | GI50 [6] [µM] | TGI [6] [µM] | GI50 [7] [nM] | TGI [7] [µM] | GI50 [8] [µM] | TGI [8] [µM] | GI50 [9] [µM] | TGI [9] [µM] | GI50 [10] [µM] | TGI [10] [µM]
1 | COc1cc2c(cc1C)NC(=O)/C2=C\c1cc(OC)c(OC)c(OC)c1 | 12.5 | 38.8 | 64100 | > 100 | 39.5 | > 100 | 33 | > 100 | > 100 | > 100 | 34.3 | > 100 | 72100 | > 100 | 91.9 | > 100 | 22.9 | > 100 | > 100 | > 100
2 | O=C(C(O)c1cn(Cc2ccccc2)c2ccccc12)N1CCCCC1 (stereo not given) |  | > 100 |  | > 100 |  | > 100 |  | > 100 |  | > 10 |  | > 100 |  | > 100 |  | > 100 |  | > 10 |  | > 100
3 | C=CC(=O)N1CCCC(n2nc(-c3ccc(Oc4ccccc4)cc3)c3c(N)ncnc32)C1 (stereo not given) | 4.28 | 25.8 | 248 | 15.8 | 7.71 | 23.8 | 11.9 | 26.2 | 12.3 | 25 | 16 | 31.6 | 643 | 14.6 | 9.14 | 22.3 | 6.11 | 20.4 | 3.97 | 19.3
4 | CC1(C)C=CC[C@]2(C)[C@H]3CC[C@@H]4[C@H]5[C@H](C(=O)/C=C/c6cccnc6)CC[C@]5(CO)CC[C@@]4(C)[C@]3(C)CC[C@@H]12 | 0.539 | 2.94 | 1140 | 2.35 | 1.15 | 2.42 | 1.05 | 2.32 | 1.54 | 2.98 | 1.28 | 2.76 | 1310 | 2.77 | 1.49 | 2.84 | 1.24 | 2.65 | 1.33 | 3.08
5 | O=C1c2cc(Br)ccc2-c2c1c1ccc([N+](=O)[O-])cc1c(=O)n2CCCCl | < 0.01 |  | < 15.1 | 6.79 | < 0.0479 | 3.56 | 1.05 | 5.94 | 1.61 | > 100 | 10.8 | 37.3 | 130 | 4.58 | < 0.01 | 7.19 | < 0.0219 | 15.6 | 0.1 | 3.59
6 | Cc1cc(S(=O)(=O)Nc2nc(N)nc(N3N=CCC3C)n2)c(S)cc1Cl (stereo not given) |  | > 10 |  | > 10 |  | > 10 |  | > 10 |  | > 10 |  | > 10 |  | > 10 |  | > 10 |  | > 10 |  | > 10
7 | CC#CC(O)(C(=O)OC1CCCN(C)C1)C1=CC=CCC1 (stereo not given) |  | > 100 |  | > 100 |  | > 100 |  | > 100 |  | > 100 |  | > 100 |  | > 100 |  | > 100 |  | > 100 |  | > 100
8 | S=C(Nc1ccc(-c2nc3ccccc3[nH]2)cc1)NC1CCCCC1 | 28.3 | > 100 | 18100 | 42.2 | 7.06 | 30.3 | 20.7 | 39.5 | 30.6 |  | 36.5 |  | 35200 |  | 46.6 |  | 19.7 | 45.2 | 19.6 | 48.9
9 | CN(C)CCNc1nc2ccccc2c2c1c1c(n2Cc2ccccc2)-c2ccccc2C1=O | 4.77 | 18.5 | 6430 | 20.7 | 9.33 | 24.9 | 4.67 | 25.2 | 16.8 | 32.3 | 10.9 | 28.9 | 12100 | 49.5 | 16.4 | 33.8 | 14.4 | 29.2 | 20.2 | 50.3
10 | COc1cc2nc(-c3ccc(C(F)(F)F)cc3)cc(OCCCN3CCOCC3)c2cc1OC | 2.51 | 14.9 | 2010 | 18.2 | 0.349 | 1.68 | 0.583 | 13.5 | 1.44 | 3.27 | 3.32 | 13.1 | 830 | 21.9 | 2.91 | 13.6 | 1.4 | 14.3 | 0.406 | 4.87
11 | Nc1nc(-c2cccc([N+](=O)[O-])c2)c(Br)c(=O)[nH]1 |  | > 100 |  | > 100 |  | > 66.6 |  | > 100 |  | > 100 |  | > 100 |  | > 100 |  | > 73 |  | > 100 |  | > 100
12 | CC[N+](CCCCCCCCCC[N+](CC)(c1ccccn1)c1ccccn1)(c1ccccn1)c1ccccn1 | 2.28 | 13.2 | 2800 | 12.9 | 0.668 | 2.29 | 0.851 | > 100 | 2.48 | 15.2 | 1.88 | 5.82 | 2070 | 11.7 | 0.761 | 27.3 | 0.526 | 24 | 2.04 | 22.3
13 | Oc1ccc(Br)cc1Sc1cc(Br)ccc1O | 7.37 | 38.4 | 6400 | 20.8 | 14.4 | 33.5 | 6 | 24.3 | 4.78 | 16.6 | 5.62 | 17.7 | 15700 | 36.3 | 4.88 | 25.2 | 4.42 | 18.4 | 18.1 | 41.9
